Measurements reported in PubChem BioAssay (NCI).
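Grown in 96-well plates, cells were treated for 48 hours with each compound at five concentrations. Insufficient inhibition: endpoint recorded as highest concentration tested. GI50 = concentration required for 50% inhibition of growth. TGI denotes the concentration required for complete inhibition of growth.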

Tests used:
Test in all cases: inhibition of tumour cell growth, NCI panel, 48 h
COLO 205 colon = tested on: COLO 205 colon
DLD-1 colon = tested on: DLD-1 colon
CAKI-1 renal = tested on: CAKI-1 renal
K-562 leukemia = tested on: K-562 leukemia
NCI-H23 lung = tested on: NCI-H23 lung
SW-620 colon = tested on: SW-620 colon
HT29 colon = tested on: HT29 colon
HCT-15 colon = tested on: HCT-15 colon
IGROV1 ovarian = tested on: IGROV1 ovarian
HL-60(TB) leukemia = tested on: HL-60(TB) leukemia
HOP-62 NSCLC = tested on: HOP-62 NSCLC
RPMI-8226 leukemia = tested on: RPMI-8226 leukemia
M14 melanoma = tested on: M14 melanoma
HOP-92 NSCLC = tested on: HOP-92 NSCLC
UACC-257 melanoma = tested on: UACC-257 melanoma
SK-MEL-5 melanoma = tested on: SK-MEL-5 melanoma
OVCAR-3 ovarian = tested on: OVCAR-3 ovarian
KM20L2 colon = tested on: KM20L2 colon
OVCAR-8 ovarian = tested on: OVCAR-8 ovarian
KM12 colon = tested on: KM12 colon
A498 renal = tested on: A498 renal
HOP-18 NSCLC = tested on: HOP-18 NSCLC
ACHN renal = tested on: ACHN renal
SNB-78 CNS = tested on: SNB-78 CNS
A549 NSCLC = tested on: A549 NSCLC
SF-268 CNS = tested on: SF-268 CNS
786-0 renal = tested on: 786-0 renal
XF 498 CNS = tested on: XF 498 CNS
SK-OV-3 ovarian = tested on: SK-OV-3 ovarian
LXFL 529 NSCLC = tested on: LXFL 529 NSCLC
UO-31 renal = tested on: UO-31 renal
NCI-H460 lung = tested on: NCI-H460 lung
EKVX NSCLC = tested on: EKVX NSCLC
OVCAR-5 ovarian = tested on: OVCAR-5 ovarian
NCI-H226 lung = tested on: NCI-H226 lung
HCC-2998 colon = tested on: HCC-2998 colon
DMS 273 small cell lung = tested on: DMS 273 small cell lung
SK-MEL-28 melanoma = tested on: SK-MEL-28 melanoma
OVCAR-4 ovarian = tested on: OVCAR-4 ovarian
RXF 393 renal = tested on: RXF 393 renal
MOLT-4 leukemia = tested on: MOLT-4 leukemia
NCI-H522 lung = tested on: NCI-H522 lung
SF-539 CNS = tested on: SF-539 CNS
CCRF-CEM leukemia = tested on: CCRF-CEM leukemia
SNB-19 CNS = tested on: SNB-19 CNS
LOX IMVI melanoma = tested on: LOX IMVI melanoma
U251 CNS = tested on: U251 CNS
SR leukemia = tested on: SR leukemia
UACC-62 melanoma = tested on: UACC-62 melanoma
SF-295 CNS = tested on: SF-295 CNS
HCT-116 colon = tested on: HCT-116 colon
SK-MEL-2 melanoma = tested on: SK-MEL-2 melanoma
MALME-3M melanoma = tested on: MALME-3M melanoma
SN12C renal = tested on: SN12C renal
TK-10 renal = tested on: TK-10 renal
SNB-75 CNS = tested on: SNB-75 CNS

## O=C([O-])c1ccc2c(c1)-c1nc-2nc2[n-]c(nc3nc(nc4[n-]c(n1)c1ccc(C(=O)[O-])cc41)-c1ccc(C(=O)[O-])cc1-3)c1ccc(C(=O)[O-])cc21.[Gd+3].[K+]
COLO 205 colon
  GI50: > 38.9 µM
  TGI: > 55.2 µM
DLD-1 colon
  GI50: > 53.2 µM
  TGI: > 94 µM
CAKI-1 renal
  GI50: > 100 µM
  TGI: > 100 µM
K-562 leukemia
  GI50: > 38.9 µM
  TGI: > 56.8 µM
NCI-H23 lung
  GI50: > 100 µM
  TGI: > 100 µM
SW-620 colon
  GI50: > 22.8 µM
  TGI: > 50.9 µM
HT29 colon
  GI50: > 83.1 µM
  TGI: > 100 µM
HCT-15 colon
  GI50: > 42.6 µM
  TGI: > 64.3 µM
IGROV1 ovarian
  GI50: > 100 µM
  TGI: > 100 µM
HL-60(TB) leukemia
  GI50: > 38.5 µM
  TGI: > 54.5 µM
HOP-62 NSCLC
  GI50: > 100 µM
  TGI: > 100 µM
RPMI-8226 leukemia
  GI50: > 47.2 µM
  TGI: > 66 µM
M14 melanoma
  GI50: > 65.1 µM
  TGI: > 100 µM
HOP-92 NSCLC
  GI50: > 100 µM
  TGI: > 100 µM
UACC-257 melanoma
  GI50: > 100 µM
  TGI: > 100 µM
SK-MEL-5 melanoma
  GI50: > 100 µM
  TGI: > 100 µM
OVCAR-3 ovarian
  GI50: > 100 µM
  TGI: > 100 µM
KM20L2 colon
  GI50: > 58.8 µM
  TGI: > 100 µM
OVCAR-8 ovarian
  GI50: > 100 µM
  TGI: > 100 µM
KM12 colon
  GI50: 19.1 µM
  TGI: 34.6 µM
A498 renal
  GI50: > 100 µM
  TGI: > 100 µM
HOP-18 NSCLC
  GI50: > 100 µM
  TGI: > 100 µM
ACHN renal
  GI50: > 100 µM
  TGI: > 100 µM
SNB-78 CNS
  GI50: > 100 µM
  TGI: > 100 µM
A549 NSCLC
  GI50: > 100 µM
  TGI: > 100 µM
SF-268 CNS
  GI50: > 64.1 µM
  TGI: > 100 µM
786-0 renal
  GI50: 18 µM
  TGI: 40.9 µM
XF 498 CNS
  GI50: > 100 µM
  TGI: > 100 µM
SK-OV-3 ovarian
  GI50: > 100 µM
  TGI: > 100 µM
LXFL 529 NSCLC
  GI50: > 57.1 µM
  TGI: > 100 µM
UO-31 renal
  GI50: > 100 µM
  TGI: > 100 µM
NCI-H460 lung
  GI50: > 100 µM
  TGI: > 100 µM
EKVX NSCLC
  GI50: > 100 µM
  TGI: > 100 µM
OVCAR-5 ovarian
  GI50: > 100 µM
  TGI: > 100 µM
NCI-H226 lung
  GI50: > 100 µM
  TGI: > 100 µM
HCC-2998 colon
  GI50: > 100 µM
  TGI: > 100 µM
DMS 273 small cell lung
  GI50: 16.6 µM
  TGI: 36.1 µM
SK-MEL-28 melanoma
  GI50: > 100 µM
  TGI: > 100 µM
OVCAR-4 ovarian
  GI50: > 46.7 µM
  TGI: > 71.7 µM
RXF 393 renal
  GI50: > 100 µM
  TGI: > 100 µM
MOLT-4 leukemia
  GI50: > 49 µM
  TGI: > 100 µM
NCI-H522 lung
  GI50: > 100 µM
  TGI: > 100 µM
SF-539 CNS
  GI50: > 46.5 µM
  TGI: > 69 µM
CCRF-CEM leukemia
  GI50: > 36.5 µM
  TGI: > 54.2 µM
SNB-19 CNS
  GI50: > 100 µM
  TGI: > 100 µM
LOX IMVI melanoma
  GI50: 16.6 µM
  TGI: 45.7 µM
U251 CNS
  GI50: > 57 µM
  TGI: > 100 µM
SR leukemia
  GI50: 30.6 µM
  TGI: 53.9 µM
UACC-62 melanoma
  GI50: 99.7 µM
  TGI: > 100 µM
SF-295 CNS
  GI50: > 100 µM
  TGI: > 100 µM
HCT-116 colon
  GI50: > 40.1 µM
  TGI: > 56.6 µM
SK-MEL-2 melanoma
  GI50: > 100 µM
  TGI: > 100 µM
MALME-3M melanoma
  GI50: > 100 µM
  TGI: > 100 µM
SN12C renal
  GI50: > 72.7 µM
  TGI: > 100 µM
TK-10 renal
  GI50: > 100 µM
  TGI: > 100 µM
SNB-75 CNS
  GI50: > 100 µM
  TGI: > 100 µM
